The values that follow come from patent publication US5091523A (priority 1990, dated 1992).

In data set [1] the test system is MDA-MB-231 human breast tumor cell line. The experiment in a line: Inhibition of DNA synthesis ([^3 H] deoxythymidine incorporation), MDA-MB-231. The data set is classed as cell-based. The note with it: for inhibition of DNA synthesis: MDA-MB-231, pharmacologically relevant concentrations (FIG. 1). The text has this:
(§1) Since a major use of analogues would be for the treatment of this disease, in vitro screening against human breast cancer cell lines was investigated. Two cell lines were investigated. […] The MCF-7 cell line retains estrogen receptor expression, has an absolute requirement for estrogen to form tumors in nude mice, responds to antiestrogen therapy and is more representative of tumors with a better prognosis.
(§2) The cytotoxic effects of Mitomycin-C are largely the result of its interactions with DNA. Consequently, the ability of Mitomycin-C and its analogues to inhibit the rate of incorporation of [^3 H] deoxythymidine into DNA was initially determined. Deoxythymidine is an essential precursor for the synthesis of DNA. The experiments were performed as described by Clarke et al., Br. J. Cancer 51: 365-369 (1985).

The subject of data set [2] is human breast cancer cell lines. The data set is classed as cell-based. The note with it: soft agar; for effect on anchorage-independent colony formation / cell survival: two assays (FIG. 5).
Description: as §1
The anchorage-independent assay ensures that the cells grow in suspension in a soft agar solution. Thus, cells must retain both their basal reproductive integrity and their ability to grow in suspension. The data in FIG. 5 represents the results of two anchorage-independent colony formation assays. The assays were performed as described by Clarke et al., J. Endocrinol. 122: 331-340 (1989).

In data set [3] the test system is human breast cancer cell lines. Nature of the data set: Conclusion over all four in vitro endpoints. The data set is classed as cell-based.
Description: as §1, §2
(§3) The interpretation of the effects of cytotoxic drugs on the rate of cell proliferation is a more difficult endpoint to interpret. For example, a cytotoxic agent may apparently reduce the rate of cell growth by killing a proportion of the cells. Alternatively, all the cells in the population may be growth arrested but not killed. Both of these series of events could produce identical growth curves.
Consequently, the most accurate methods for determining cell kill measure the ability of a single cell to produce a clone of 50 or more cells (equivalent to six or more divisions). […]

For data set [4], the system named is MDA-MB-231 cells. The experiment in a line: Anchorage-dependent colony formation. In kind it is cell-based, human.
Description: as §1
Consequently, the most accurate methods for determining cell kill measure the ability of a single cell to produce a clone of 50 or more cells (equivalent to six or more divisions). Two clonogenic assays were utilized. The anchorage-dependent assay provides the cells with a solid plastic substrate for attachment. The experiments were preformed as described by van den Berg et al. (1981), supra.

Data set [5] relates to MCF-7 human breast tumor cell line. Nature of the data set: Inhibition of DNA synthesis ([^3 H] deoxythymidine incorporation), MCF-7. In kind it is cell-based. Conditions: for inhibition of DNA synthesis: MCF-7, pharmacologically relevant concentrations (FIG. 2).
Description: as §1, §2

The test system of data set [6] is MDA-MB-231 cells. The experiment in a line: Inhibition of the rate of cell proliferation. In kind it is cell-based, human. The note with it: for effect on the rate of cell proliferation / cell population kinetics: MDA-MB-231 (FIG. 3).
Description: as §1, §3

Data set [7] in a line: Weight loss resultant from drug toxicity (Example 14, Table 5).
Description: Each compound was administered intraperitoneally to groups of CD2F1 male mice on Day 1 following intraperitoneal implantation of 1×10^6 P388 leukemia cells.
Weight loss resultant from drug toxicity was also determined.
Data set [8] concerns P388 leukemia. Nature of the data set: Murine P388 leukemia antitumor activity (Example 14, Table 5). The data set is classed as in vivo, murine (CD2F1 male mice). The text has this: T is the mean survival days of mice receiving drug=treated mice
C is the mean survival days of the mice receiving drug vehicle.

Data set [9] in a line: Host toxicity (preliminary data). In kind it is in vivo, mice. The note with it: for mortality: mouse, in vivo, one ip injection, read-out: fatalities. The text has this:
Further, in vivo testing will be performed in two parts. Firstly, the host toxicity of the analogues in comparison with the parent drug will be tested. The concentration required to kill approximately 10% of a population of mice will then be determined. Histopathological analysis will determine the effect of drug treatment on tissues and organs. Analysis of white blood cell counts will provide information on hematopoietic toxicity. […] 80% and 100% fatalities were observed following one intraperitoneal injection of 30 and 40 mg/kg MC-77 respectively.

Data set [10] deals with murine and human neoplasms. The note with it: preclinical and clinical studies; cited from earlier work.
For the next data set, the system named is metastatic breast cancer. The note with it: cited from earlier work.
Data set [11] deals with Gram-negative strain of bacteria (HB101). Nature of the data set: Antibacterial activity, agar dilution M.I.C. (Example 12, Table 4). In kind it is cell-based. The note with it: read-out: M.I.C. Gram-negative Bacteria. Here is the method: Minimum inhibition concentration (M.I.C.) against a Gram-negative strain of bacteria (HB101) was estimated by the dilution method, with graded concentrations of drug added to agar at 37°-40° C. […] The agar, containing drug, quickly solidified at room temperature, and the bacteria were plated immediately.

A further data set deals with bone marrow. The note with it: preclinical and clinical studies; cited from earlier work.
For data set [12], the system named is P388 leukemia. The note with it: cited from earlier work.
The test system of data set [13] is P388 leukemia. The experiment in a line: Murine P388 leukemia antitumor activity (Example 11, Table 2). The data set is classed as in vivo, murine (CD2F1 male mice). The note with it: for % ILS (percentage increased life span): Day 1, P388 leukemia; for Mean Survival: control 10.0. On the procedure:
The murine P388 leukemia system, maintained intraperitoneally in female DBA/2 mice, was used to evaluate antitumor activity.
The P388 antileukemic activity of the test compound was assessed by mean survival days and percentage increased life span (ILS). The % ILS was calculated as follows: […]
where T is the mean survival days of the treated mice and C is the mean survival days of the untreated mice.

Data set [14] relates to peripheral leukocyte (WBC). The experiment in a line: In vivo murine WBC depression / bone marrow toxicity (Table 3). Also noted: species or system normal CD2F1 male mice. Here is the method: Blood samples obtained were diluted in 9.98 ml of Isoton (a neutral, isotonic buffer solution) and counted in a Coulter counter after lysis with Zapoglobin (an enzyme solution which lyses red blood cells, but not white blood cells). WBC counts are expressed as a percentage of values from control mice receiving drug vehicle only.

Molecules are shown by their SMILES. In brackets after ≈: the same amount, converted by molar mass. Where two headings read alike, the source gives them in different places. Bounds are passed on as bounds.

`CO[C@@]12[C@H](COC(N)=O)C3=C(C(=O)C(C)=C(NCCCC(=O)N[C@@H]4O[C@H](COC(C)=O)[C@@H](OC(C)=O)[C@H](OC(C)=O)[C@H]4NC(C)=O)C3=O)N1C[C@@H]1N[C@@H]12` [MC-62, 7-{3-[(2-acetamido-3,4,6-tri-O-acetyl-β-D-glucopyranosyl)-amino]carbonylpropylamino}-9-methoxymitosane]: the “potency in inhibition of DNA synthesis relative to Mitomycin-C and MC-77” value was “significantly less potent than both Mitomycin-C and MC-77” in data set [1] (MDA-MB-231); “significantly less potent than both Mitomycin-C and MC-77” in data set [5] (MCF-7). Also, the “effect on anchorage-independent colony formation / cell survival” value in [2] was “consistently fails to influence colony formation”. The “antineoplastic potential (all four endpoints)” value in [3] is given as “significantly reduced antineoplastic potential”. In the data set on MDA-MB-231 cells [4] (MDA-MB-231 (FIG. 4)), the “effect on anchorage-dependent colony formation” value is listed as “did not significantly influence colony formation”. Also, the “effect on the rate of cell proliferation / cell population kinetics” value in the data set on MDA-MB-231 cells [6] is “failed to markedly influence the rate of MDA-MB-231 growth”.
Take `CO[C@@]12[C@H](COC(N)=O)C3=C(C(=O)C(C)=C(Nc4ccc(OP(=O)(O)O)cc4)C3=O)N1C[C@@H]1N[C@@H]12` [N^7-(4-phosphatophenyl)mitomycin C]: the weight loss entry in [7] (15 mg/kg ip) is listed as “No weight loss”. Further, the Average weight loss in [7] (30 mg/kg ip) worked out at 8%. Further, the “body weight decrease for all mice” value in data set [7] (45 mg/kg ip, by Day 6 post-drug injection) is 20-24%. Also, the “% ILS” value in the data set with P388 leukemia [8] (15 mg/kg ip) was 84; in the data set on P388 leukemia [8] (30 mg/kg ip), > 150. Besides, in the data set on P388 leukemia [8] (30 mg/kg ip), the 30-day survivor is 1/5.
Take `CO[C@@]12[C@H](COC(N)=O)C3=C(C(=O)C(C)=C(Nc4ccc(O[C@@H]5O[C@H](COC(C)=O)[C@@H](OC(C)=O)[C@H](OC(C)=O)[C@H]5OC(C)=O)cc4)C3=O)N1C[C@@H]1N[C@@H]12` [MC-77, 7-{[4-(2,3,4,6-tetra-O-acetyl-β-D-glucopyranosyl)oxyphenyl]amino}-9-methoxymitosane]: in [9] (inconclusive preliminary data, vs Mitomycin-C), the “fold less toxic than the parent drug” value is reported as “up to two fold less toxic than the parent drug”. In addition, the mortality in [9] (30 mg/kg, preliminary, one experiment) is 80%; in [9] (40 mg/kg, preliminary, one experiment), 100%. Also, the “toxicity compared with Mitomycin-C” value in [9] (preliminary) was “no more toxic when compared with Mitomycin-C”. Further, the “dose response curve for toxicity” value in data set [9] (preliminary, one experiment) is “retained the steep dose response curve for toxicity”. Moreover, the “inhibition of DNA synthesis compared with the parent compound” value in [1] (MDA-MB-231, equimolar concentrations, vs Mitomycin-C) is “two to five fold greater inhibition of DNA synthesis”; in [5] (MCF-7, equimolar concentrations, vs Mitomycin-C), “two to five fold greater inhibition of DNA synthesis”. In addition, the “inhibition of DNA synthesis” value was “significant and dose dependent inhibition of DNA synthesis” in [1]; “significant and dose dependent inhibition of DNA synthesis” in data set [5]. In data set [2], the “effect on anchorage-independent colony formation / cell survival” value is “dose dependent reductions in cell survival”. The “cytotoxicity in anchorage-independent assay compared with Mitomycin-C” value in [2] (vs Mitomycin-C) was “two to five fold more cytotoxic”. For the same compound, the “cytotoxic potential compared with the parent drug (all four endpoints)” value in data set [3] (vs Mitomycin-C) was “marked improvement in the cytotoxic potential of between two and five fold”. Further, the “reduction in anchorage-dependent colony forming ability” value in the data set with MDA-MB-231 cells [4] (MDA-MB-231, 0.25 uM) is recorded as “significant reduction in colony forming ability”. Further, in the data set with MDA-MB-231 cells [4] (MDA-MB-231, 0.25 uM, vs equimolar Mitomycin-C, estimated), the “inhibition of anchorage-dependent colony formation compared with Mitomycin-C” value is reported as “approximately two to five fold greater”. Further, in the data set on MDA-MB-231 cells [6], the “effect on the rate of cell proliferation / cell population kinetics” value is on record as “significantly inhibited the rate of cell proliferation”. In the data set with MDA-MB-231 cells [6] (MDA-MB-231, 1.5 uM), the “cell number relative to starting cell number” value is given as “reduced cell number below starting cell number”.
On to `CO[C@@]12[C@H](COC(N)=O)C3=C(C(=O)C(C)=C(N)C3=O)N1C[C@@H]1N[C@@H]12` [Mitomycin C, mitomycin C, reference compound], for which the “activity against murine and human neoplasms” value in data set [10] is “activity against a variety of murine and human neoplasms”. Further, the “objective responses in patients” value with metastatic breast cancer is “significant percentage of objective responses”. Further, the “inhibition of DNA synthesis” value is “significant and dose dependent inhibition of DNA synthesis” in data set [1]; “significant and dose dependent inhibition of DNA synthesis” in data set [5]. Besides, in [11] (HB101, agar, 24 hours at 37° C.), the MIC lay in the range of 0.3 to 0.5 mg/L (≈ 0.897 to 1.5 µM). Moreover, the “effect on anchorage-independent colony formation / cell survival” value in data set [2] is “dose dependent reductions in cell survival”. For the same compound, in the data set on bone marrow, the bone marrow toxicity entry was “severe, delayed bone marrow toxicity”. Further, the “reduction in anchorage-dependent colony forming ability” value in the data set with MDA-MB-231 cells [4] (MDA-MB-231, 0.25 uM) is “significant reduction in colony forming ability”. The “effect on the rate of cell proliferation / cell population kinetics” value in the data set with MDA-MB-231 cells [6] was “significantly inhibited the rate of cell proliferation”. Further, in the data set on P388 leukemia [8] (5 mg/kg ip), the “% ILS” value turned out to be 83. The “optimal single ip P388 therapeutic dose” value in the data set on P388 leukemia [12] was 4.5 to 5.5 mg/kg.
`CO[C@@]12[C@H](COC(N)=O)C3=C(C(=O)C(C)=C(N[C@H]4C(O)O[C@H](CO)[C@@H](O)[C@@H]4O)C3=O)N1C[C@@H]1N[C@@H]12` (some centres unmarked) [N^7-(2-deoxyglucopyranosyl)mitomycin C]: the MIC in data set [11] (24 h) was 1.66 to 3.3 mg/L (≈ 3.34 to 6.65 µM). Further, in the data set on P388 leukemia [13] (5 mg/kg ip), the “% ILS (percentage increased life span)” value is on record as 42% and the “Mean Survival” value was found to be 14.2 days. In the data set with P388 leukemia [13] (13.5 mg/kg ip), the “% ILS (percentage increased life span)” value was 61% and the “Mean Survival” value is 16.1 days. In addition, the “activity against the murine P388 tumor system” value in the data set on P388 leukemia [13] (summary) was “significant activity against the murine P388 tumor system”. Moreover, the “WBC Count on Day 3 (as percent of control)” value in data set [14] (13.5 mg/kg ip, normal CD2F1 male mice, Day 3) was 94%. Besides, in [14] (summary, at active doses), the “bone marrow toxicity as determined by depression of peripheral leukocyte (WBC) count” value is on record as “no significant bone marrow toxicity”.
